These results are taken from ChEMBL document CHEMBL4041469, “The replacement of the 2-methoxy substituent of N-((6,6-diphenyl-1,4-dioxan-2-yl)methyl)-2-(2-methoxyphenoxy)ethan-1-amine improves the selectivity for 5-HT1A receptor over α1-adrenoceptor and D2-like receptor subtypes” (Eur J Med Chem, 2017).

The target in assay [1] is T1, Alpha-1D adrenergic receptor (Homo sapiens, UniProt P25100).
T1 sequence (P25100 whole entry): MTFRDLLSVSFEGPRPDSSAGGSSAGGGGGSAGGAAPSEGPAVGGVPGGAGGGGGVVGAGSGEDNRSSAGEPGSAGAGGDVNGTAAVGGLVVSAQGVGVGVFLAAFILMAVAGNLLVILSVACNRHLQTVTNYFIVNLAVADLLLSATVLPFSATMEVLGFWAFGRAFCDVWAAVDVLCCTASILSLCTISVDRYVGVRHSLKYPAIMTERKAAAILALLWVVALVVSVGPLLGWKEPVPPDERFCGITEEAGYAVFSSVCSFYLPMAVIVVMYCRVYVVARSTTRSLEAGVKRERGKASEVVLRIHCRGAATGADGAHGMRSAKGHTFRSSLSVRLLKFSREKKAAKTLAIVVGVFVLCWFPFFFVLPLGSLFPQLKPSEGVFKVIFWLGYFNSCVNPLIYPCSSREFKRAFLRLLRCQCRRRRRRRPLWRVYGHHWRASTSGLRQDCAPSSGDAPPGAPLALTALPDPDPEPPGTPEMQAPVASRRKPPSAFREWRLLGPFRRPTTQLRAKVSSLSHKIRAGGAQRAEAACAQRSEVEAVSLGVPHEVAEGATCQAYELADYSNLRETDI
The experiment in a line: Displacement of [3H]prazosin from recombinant human alpha-1d adrenergic receptor expressed in CHO cell membranes after 30 mins by liquid scintillation counting method.

Assay [2] concerns Mus musculus. Nature of the assay: Anxiolytic activity in CD-1 mouse assessed as increase in time spent in light area at 2.5 mg/kg, ip administered 30 mins prior to test by light/dark exploration test. Format: functional, organism-based.
The test system of assay [3] is Mus musculus. The experiment in a line: Anxiolytic activity in CD-1 mouse assessed as increase in latency time to enter dark area at 2.5 mg/kg, ip administered 30 mins prior to test by light/dark exploration test. The assay is classed as functional, organism-based.
Assay [4] concerns the target T2, 5-hydroxytryptamine receptor 1A (Homo sapiens) (UniProt P08908).
T2 sequence (whole entry): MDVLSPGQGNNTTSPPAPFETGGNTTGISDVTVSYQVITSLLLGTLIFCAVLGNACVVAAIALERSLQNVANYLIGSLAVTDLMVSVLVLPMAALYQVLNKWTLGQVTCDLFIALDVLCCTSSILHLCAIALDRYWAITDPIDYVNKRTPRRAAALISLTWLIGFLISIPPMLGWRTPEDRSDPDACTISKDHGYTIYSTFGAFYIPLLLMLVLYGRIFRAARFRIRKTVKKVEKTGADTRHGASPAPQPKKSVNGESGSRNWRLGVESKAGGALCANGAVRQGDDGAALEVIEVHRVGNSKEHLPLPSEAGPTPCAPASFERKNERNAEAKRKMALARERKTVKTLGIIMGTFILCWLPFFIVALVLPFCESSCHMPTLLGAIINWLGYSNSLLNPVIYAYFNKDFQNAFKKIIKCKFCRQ
Nature of the assay: Agonist activity at recombinant human 5HT1A receptor expressed in human HeLa cell membranes assessed as stimulation of [35S]GTPgammaS binding preincubated for 20 mins followed by [35S]GTPgammaS addition measured after 30 mins by liquid scintillation counting method. Format: functional. (GTPγS resists hydrolysis and so accumulates on activated G proteins.)

Assay [5] can be described thus: Selectivity index, ratio of Ki for recombinant human alpha-1a adrenergic receptor expressed in CHO cell membranes to Ki for recombinant human 5HT1A receptor expressed in human HeLa cell membranes.
Assay [6] is described as follows: Selectivity index, ratio of Ki for recombinant human alpha-1b adrenergic receptor expressed in CHO cell membranes to Ki for recombinant human 5HT1A receptor expressed in human HeLa cell membranes.
Assay [7] is described as follows: Selectivity index, ratio of Ki for recombinant human alpha-1d adrenergic receptor expressed in CHO cell membranes to Ki for recombinant human 5HT1A receptor expressed in human HeLa cell membranes.
Assay [8] concerns the target D(2) dopamine receptor (Homo sapiens, UniProt P14416). The experiment in a line: Displacement of [3H]N-methylspiperone from recombinant human D2 receptor expressed in HEK293 cell membranes after 1 hr by liquid scintillation counting method.
Assay [9] addresses D(3) dopamine receptor (Homo sapiens, UniProt P35462). Nature of the assay: Displacement of [3H]N-methylspiperone from recombinant human D3 receptor expressed in HEK293 cell membranes after 1 hr by liquid scintillation counting method. (In a radioligand displacement assay an active substance lowers the binding of a labelled ligand.)
Assay [10] addresses T3, D(4) dopamine receptor (Homo sapiens, UniProt P21917).
T3 sequence (P21917 whole entry): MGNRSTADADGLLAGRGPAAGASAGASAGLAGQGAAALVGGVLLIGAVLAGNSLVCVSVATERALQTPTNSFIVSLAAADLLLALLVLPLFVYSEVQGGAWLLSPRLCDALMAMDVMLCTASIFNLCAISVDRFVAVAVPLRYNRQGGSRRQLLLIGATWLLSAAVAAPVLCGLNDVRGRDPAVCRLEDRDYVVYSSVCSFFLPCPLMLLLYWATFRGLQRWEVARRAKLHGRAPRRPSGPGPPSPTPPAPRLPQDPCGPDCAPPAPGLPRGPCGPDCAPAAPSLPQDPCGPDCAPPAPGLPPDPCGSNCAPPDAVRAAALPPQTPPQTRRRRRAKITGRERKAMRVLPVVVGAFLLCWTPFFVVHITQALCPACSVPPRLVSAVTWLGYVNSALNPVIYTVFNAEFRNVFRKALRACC
Nature of the assay: Displacement of [3H]N-methylspiperone from recombinant human D4 receptor expressed in HEK293 cell membranes after 1 hr by liquid scintillation counting method.

Assay [11] can be described thus: Selectivity index, ratio of Ki for recombinant human D2 receptor expressed in HEK293 cell membranes to Ki for recombinant human 5HT1A receptor expressed in human HeLa cell membranes.
The nature of assay [12]: Selectivity index, ratio of Ki for recombinant human D3 receptor expressed in HEK293 cell membranes to Ki for recombinant human 5HT1A receptor expressed in human HeLa cell membranes.
Assay [13] can be described thus: Selectivity index, ratio of Ki for recombinant human D4 receptor expressed in HEK293 cell membranes to Ki for recombinant human 5HT1A receptor expressed in human HeLa cell membranes.
Assay [14] concerns the target T4, Alpha-1B adrenergic receptor (Homo sapiens, UniProt P35368).
T4 sequence (P35368 whole entry): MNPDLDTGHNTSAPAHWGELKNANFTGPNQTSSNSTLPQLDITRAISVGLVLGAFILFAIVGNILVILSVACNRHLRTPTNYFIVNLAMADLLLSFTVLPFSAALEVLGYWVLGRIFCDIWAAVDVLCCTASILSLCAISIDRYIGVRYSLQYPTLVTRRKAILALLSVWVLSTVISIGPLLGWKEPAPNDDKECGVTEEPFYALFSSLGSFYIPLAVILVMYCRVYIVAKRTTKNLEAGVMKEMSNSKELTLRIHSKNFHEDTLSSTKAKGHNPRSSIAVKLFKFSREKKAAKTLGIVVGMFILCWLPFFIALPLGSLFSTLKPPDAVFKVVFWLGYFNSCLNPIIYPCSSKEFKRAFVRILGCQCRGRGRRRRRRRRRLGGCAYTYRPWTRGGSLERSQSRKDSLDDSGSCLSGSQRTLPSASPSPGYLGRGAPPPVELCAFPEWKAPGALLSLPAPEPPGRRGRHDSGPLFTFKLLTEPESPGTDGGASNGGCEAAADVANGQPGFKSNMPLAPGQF
The experiment in a line: Displacement of [3H]prazosin from recombinant human alpha-1b adrenergic receptor expressed in CHO cell membranes after 30 mins by liquid scintillation counting method.

Assay [15] has as its target T5, Alpha-1A adrenergic receptor (Homo sapiens, UniProt P35348).
T5 sequence (P35348 whole entry): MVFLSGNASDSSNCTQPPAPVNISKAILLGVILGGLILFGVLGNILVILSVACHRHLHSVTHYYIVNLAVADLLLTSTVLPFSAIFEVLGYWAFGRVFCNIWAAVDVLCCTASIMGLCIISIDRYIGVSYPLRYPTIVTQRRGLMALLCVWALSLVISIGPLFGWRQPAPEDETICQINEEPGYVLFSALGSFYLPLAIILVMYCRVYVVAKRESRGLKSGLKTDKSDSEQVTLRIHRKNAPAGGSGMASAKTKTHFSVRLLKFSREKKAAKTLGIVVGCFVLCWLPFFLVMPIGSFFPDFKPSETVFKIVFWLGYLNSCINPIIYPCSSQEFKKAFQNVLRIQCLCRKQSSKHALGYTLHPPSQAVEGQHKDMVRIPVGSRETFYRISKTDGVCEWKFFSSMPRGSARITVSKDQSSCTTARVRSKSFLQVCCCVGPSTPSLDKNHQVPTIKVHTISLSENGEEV
Nature of the assay: Displacement of [3H]prazosin from recombinant human alpha-1a adrenergic receptor expressed in CHO cell membranes after 30 mins by liquid scintillation counting method.

In assay [16] the target is T6, 5-hydroxytryptamine receptor 1A (Homo sapiens, UniProt P08908).
T6 sequence (P08908 whole entry): T2 sequence (whole entry)
The experiment in a line: Displacement of [3H]8-OH-DPAT from recombinant human 5HT1A receptor expressed in human HeLa cell membranes after 30 mins by liquid scintillation counting method.

The target of assay [17] is T2, 5-hydroxytryptamine receptor 1A (Homo sapiens). Nature of the assay: Agonist activity at recombinant human 5HT1A receptor expressed in human HeLa cell membranes assessed as stimulation of [35S]GTPgammaS binding up to 10 uM preincubated for 20 mins followed by [35S]GTPgammaS addition measured after 30 mins by liquid scintillation counting method relative to 5-HT. Format: functional.

The source made the active and inactive calls. No cut-off for these calls is given here.

D(3) dopamine receptor, sequence (P35462 whole entry): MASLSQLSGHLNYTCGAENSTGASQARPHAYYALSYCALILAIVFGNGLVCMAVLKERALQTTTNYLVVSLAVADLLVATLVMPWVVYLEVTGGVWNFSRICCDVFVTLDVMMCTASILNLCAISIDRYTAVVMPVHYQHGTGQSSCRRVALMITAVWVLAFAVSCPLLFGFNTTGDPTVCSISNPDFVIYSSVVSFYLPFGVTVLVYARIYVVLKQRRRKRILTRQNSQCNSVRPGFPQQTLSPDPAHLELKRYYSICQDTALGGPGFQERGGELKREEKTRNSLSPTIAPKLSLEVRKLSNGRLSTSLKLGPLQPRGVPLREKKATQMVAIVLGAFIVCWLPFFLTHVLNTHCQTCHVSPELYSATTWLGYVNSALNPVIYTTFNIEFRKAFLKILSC
D(2) dopamine receptor, sequence (P14416 whole entry): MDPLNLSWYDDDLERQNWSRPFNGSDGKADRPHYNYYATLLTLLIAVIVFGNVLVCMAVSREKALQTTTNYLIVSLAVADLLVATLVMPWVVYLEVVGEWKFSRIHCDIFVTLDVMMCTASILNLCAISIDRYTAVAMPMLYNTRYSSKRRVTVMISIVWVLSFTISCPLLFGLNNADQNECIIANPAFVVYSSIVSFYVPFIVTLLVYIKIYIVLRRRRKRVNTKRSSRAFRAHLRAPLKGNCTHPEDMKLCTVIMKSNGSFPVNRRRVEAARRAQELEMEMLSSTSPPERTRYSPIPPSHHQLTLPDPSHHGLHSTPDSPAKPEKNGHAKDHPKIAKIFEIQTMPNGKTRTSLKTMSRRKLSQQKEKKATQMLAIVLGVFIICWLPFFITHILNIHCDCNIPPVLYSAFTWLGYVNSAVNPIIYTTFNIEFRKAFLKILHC

The Ki is the equilibrium dissociation constant of an inhibitor or competing ligand from its target. With `O=C1CC2(CCCC2)CC(=O)N1CCN1CCN(c2ccccc2O)CC1`, in assay [1], the Ki was 16.2 nM.

Turning to `CN1C(=O)CN=C(c2ccccc2)c2cc(Cl)ccc21`, the outcome in assay [2] and in assay [3] was Active.

Consider `COc1cccc(OC)c1OCCNC[C@@H]1COCC(c2ccccc2)(c2ccccc2)O1`, for which the pD2 in assay [4] was 5.88.

Regarding `COc1cccc(OC)c1OCCNC[C@H]1COCC(c2ccccc2)(c2ccccc2)O1`, the pD2 in [4] worked out at 8.3.

As for `COc1ccccc1N1CCN(CCN2C(=O)CC3(CCCC3)CC2=O)CC1`, in assay [4], the pD2 amounted to 9.27.

On to `COc1ccccc1OCCNC[C@@H]1COCC(c2ccccc2)(c2ccccc2)O1`, for which the pD2 in [4] came to 7.7.

Take `COc1ccccc1OCCNC[C@H]1COCC(c2ccccc2)(c2ccccc2)O1`: the pD2 in [4] worked out at 9.19.

For the compound `COc1ccccc1OCCNCC1COCC(c2ccccc2)(c2ccccc2)O1` (racemic), the pD2 in [4] came to 9.4. Besides, the “Ratio Ki” value in assay [5] is recorded as 42; in [6] it was 85; in assay [7], 2; in [11], 19; in assay [12] it was 20; in [13], 13. Further, the inhibition constant Ki is 12.3 nM in assay [8], 13.2 nM in [9] and 8.32 nM in [10].

In general, Emax refers to the size of the effect at its maximum, as opposed to the concentration needed. `O=[N+]([O-])c1ccccc1OCCNCC1COCC(c2ccccc2)(c2ccccc2)O1` (racemic): the Ki is 251 nM in assay [14], 117 nM in assay [15], 6.61 nM in [1] and 0.562 nM in assay [16]. Also, in assay [4], the pD2 worked out at 8.93. Besides, in assay [17], the maximal effect (Emax) is 82.5 to 82.6%.

For the compound `Cc1ccccc1OCCNCC1COCC(c2ccccc2)(c2ccccc2)O1` (racemic), the Ki in assay [14] was 178 nM; in [15] it was 170 nM; in [1], 5.01 nM; in assay [16], 1.12 nM. The pD2 in assay [4] worked out at 8.73. Besides, the Emax in assay [17] turned out to be 59.7%.

Consider `Clc1ccccc1OCCNCC1COCC(c2ccccc2)(c2ccccc2)O1` (racemic), for which the Ki in [14] was 120 nM; in assay [15] it was 115 nM; in assay [1], 5.89 nM; in assay [16], 0.794 nM. Further, in assay [4], the pD2 came to 8.7. Besides, the maximal effect (Emax) in assay [17] is 66%.

Turning to `COc1ccccc1OCCNCC1COC(c2ccccc2)(c2ccccc2)CO1` (racemic), in assay [16], the Ki is 7.59 nM.

In the case of `c1ccc(OCCNCC2COC(c3ccccc3)(c3ccccc3)CO2)cc1` (racemic), the Ki in assay [16] is 37.2 nM.

In the case of `Oc1ccccc1OCCNCC1COCC(c2ccccc2)(c2ccccc2)O1` (racemic), the Ki in [14] is 372 nM; in assay [15], 195 nM; in assay [1], 77.6 nM; in [16] it was 0.692 nM; in assay [8] it was 15.5 nM; in assay [9], 33.9 nM. Further, in assay [10], the inhibition constant Ki is 36.3 nM. For the same compound, in assay [4], the pD2 is 7.8. In addition, the maximal response (Emax) in assay [17] was found to be 65.6%. Moreover, the “Ratio Ki” value in assay [7] is recorded as 112; in [11] it was 22; in assay [12] it was 49; in [13], 53.

Turning to `COc1cccc(OC)c1OCCNCC1COC(c2ccccc2)(c2ccccc2)CO1` (racemic), the inhibition constant Ki in assay [16] is 229 nM.

With `c1ccc(C2(c3ccccc3)COCC(CNCCOc3ccccn3)O2)cc1` (racemic), the inhibition constant (Ki) is 115 nM in assay [14], 155 nM in assay [15], 5.5 nM in [1] and 0.891 nM in assay [16]. The pD2 in [4] amounted to 8.02. Also, in assay [17], the Emax worked out at 63.9%.

`COc1cccc(OC)c1OCCNCC1COCC(c2ccccc2)(c2ccccc2)O1` (racemic): the pD2 in assay [4] is 8.28.

In the case of `COc1ccccc1OCCNC[C@@H]1COC[C@H](c2ccccc2)O1` (racemic), in assay [17], the Emax was found to be 78.1%.

With `COc1ccccc1OCCNC[C@@H]1CO[C@H](c2ccccc2)CO1` (racemic), the pD2 in assay [4] worked out at 7.88. Also, the Emax in assay [17] is 85.5%.
